From ChEMBL document CHEMBL3352232, “Discovery of pyridyl sulfonamide 11-beta-hydroxysteroid dehydrogenase type 1 (11β-HSD1) inhibitors for the treatment of metabolic disorders” (Bioorg Med Chem Lett, 2014)
Values after ≈ are worked out from the molar mass of the structure shown.

Experiments:
[1] = target: 11-beta-hydroxysteroid dehydrogenase 1 (Homo sapiens, UniProt P28845); assay: Inhibition of human 11-betaHSD1 by biochemical assay
[2] = Aqueous solubility of the compound; assay type: physicochemical
[3] = Stability in mouse liver microsomes assessed as compound remaining after 10 mins; assay type: ADME; conditions: read-out: Stability
[4] = target: 11-beta-hydroxysteroid dehydrogenase 1 (Mus musculus, UniProt P50172); assay: Inhibition of mouse 11-betaHSD1 by biochemical assay
[5] = Stability in rat liver microsomes assessed as compound remaining after 10 mins; assay type: ADME; conditions: read-out: Stability
[6] = Stability in human liver microsomes assessed as compound remaining after 10 mins; assay type: ADME; conditions: read-out: Stability

11-beta-hydroxysteroid dehydrogenase 1 (Homo sapiens, UniProt P28845), sequence (P28845 whole entry): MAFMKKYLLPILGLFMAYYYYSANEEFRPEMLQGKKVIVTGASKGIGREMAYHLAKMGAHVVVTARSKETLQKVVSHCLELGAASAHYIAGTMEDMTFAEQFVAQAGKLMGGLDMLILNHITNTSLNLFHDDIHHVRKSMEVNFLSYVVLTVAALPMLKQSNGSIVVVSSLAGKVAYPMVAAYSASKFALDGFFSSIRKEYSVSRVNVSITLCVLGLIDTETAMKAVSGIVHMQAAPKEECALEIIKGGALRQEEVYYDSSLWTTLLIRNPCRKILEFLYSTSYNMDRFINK
11-beta-hydroxysteroid dehydrogenase 1 (Mus musculus, UniProt P50172), sequence (P50172 whole entry): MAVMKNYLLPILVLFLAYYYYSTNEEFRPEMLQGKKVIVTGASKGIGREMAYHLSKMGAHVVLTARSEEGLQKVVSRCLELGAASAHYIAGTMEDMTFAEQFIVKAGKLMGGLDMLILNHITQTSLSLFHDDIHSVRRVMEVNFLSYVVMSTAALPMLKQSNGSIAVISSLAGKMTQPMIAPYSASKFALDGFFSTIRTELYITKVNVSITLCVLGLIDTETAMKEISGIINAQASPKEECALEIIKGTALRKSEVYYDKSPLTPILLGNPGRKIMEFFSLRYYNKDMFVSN

| SMILES | IC50 [1] [nM] | solubility [2] [µg/mL] | remaining at 10 min [3] [%] | IC50 [4] | remaining at 10 min [5] [%] | remaining at 10 min [6] [%] |
| --- | --- | --- | --- | --- | --- | --- |
| N#Cc1ccc(-c2cccc(S(=O)(=O)N3CCC(N4CCCC4)CC3)n2)cc1 | 980 | 270 (≈ 681 µM) | – | – | – | – |
| CC1CCN(C(=O)c2ccc(CSc3ccc(Cl)cc3)cc2)CC1 | 160 | – | – | – | – | – |
| CC1CCN(S(=O)(=O)c2cccc(-c3cccc(Cl)c3)n2)CC1 | 310 | 1 (≈ 2.85 µM) | – | – | – | – |

Continued by falling IC50 [1], values first:

| IC50 [1] [nM] | solubility [2] [µg/mL] | remaining at 10 min [3] [%] | IC50 [4] | remaining at 10 min [5] [%] | remaining at 10 min [6] [%] | SMILES |
| --- | --- | --- | --- | --- | --- | --- |
| 160 | 14 (≈ 35.1 µM) | – | – | – | – | N#Cc1ccc(-c2cccc(S(=O)(=O)N3CCC(N4CCOCC4)C3)n2)cc1 (centres undefined) |
| 55 | 1 (≈ 2.85 µM) | – | – | – | – | CC1CCN(S(=O)(=O)c2cccc(-c3ccc(Cl)cc3)n2)CC1 |
| 49 | 2 (≈ 5.86 µM) | – | – | – | – | CC1CCN(S(=O)(=O)c2cccc(-c3ccc(C#N)cc3)n2)CC1 |
| 30 | 48 (≈ 124 µM) | 7 | Not Active | 4 | 62 | O=S(=O)(c1cccc(-c2ccccc2)n1)N1CCC(N2CCOCC2)CC1 |
| 9 | < 1 | – | – | – | – | N#Cc1ccc(-c2cccc(S(=O)(=O)N3CCC(C4CCCCC4)CC3)n2)cc1 |
